According to patent publication US11299473B2, “Benzimidazole and indole compounds and uses thereof” (Incyte Corporation, priority 2018, dated 2022):

These molecules were tested against active HPK1 (SignalChem M23-11G) (Homo sapiens (Human), UniProt Q92918) (assay: HPK1 Kinase Binding Assay). Conditions: LanthaScreen tracer 222 / Eu-Anti GST antibody, one hour incubation at 25° C.
Experimental: A stock solution of 1 mM test compound was prepared in DMSO. The compound plate was prepared by 3-fold and 11-point serial dilutions. 0.1 μL of the compound in DMSO was transferred from the compound plate to the white 384 well polystyrene plates. The assay buffer contained 50 mM HEPES, pH 7.5, 0.01% Tween-20, 5 mM MgCl2, 0.01% BSA, and 5 mM DTT. 5 μL of 4 nM active HPK1 (SignalChem M23-11G) prepared in the buffer was added to the plate. The enzyme concentration given was based on the given stock concentration reported by the vender. 5 μl of 18 nM tracer 222 (ThermoFisher PV6121) and 4 nM LanthaScreen Eu-Anti GST antibody (ThermoFisher PV5595) were added. After one hour incubation at 25° C., the plates were read on a PHERAstar FS plate reader (BMG Labtech). Ki values were determined.

Chain of active HPK1 (SignalChem M23-11G) (Q92918 1-346 limits assumed): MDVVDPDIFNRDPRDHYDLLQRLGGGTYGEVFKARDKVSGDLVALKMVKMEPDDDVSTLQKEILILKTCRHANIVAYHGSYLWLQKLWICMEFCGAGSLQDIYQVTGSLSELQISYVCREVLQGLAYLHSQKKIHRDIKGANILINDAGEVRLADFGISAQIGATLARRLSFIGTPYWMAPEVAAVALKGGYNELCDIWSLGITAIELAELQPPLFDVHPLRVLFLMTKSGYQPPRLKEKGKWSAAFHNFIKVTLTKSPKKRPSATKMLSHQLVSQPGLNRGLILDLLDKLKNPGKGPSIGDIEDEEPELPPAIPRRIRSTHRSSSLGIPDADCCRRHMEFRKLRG

Ki, ≤ 100 nM:
COc1cccc(F)c1-c1nccc(C(=O)Nc2ccc3c(nc(-c4ncccc4F)n3C)c2N2C[C@H](N)C[C@H]2CO)n1 [Example 1, N-(4-((2S,4R)-4-Amino-2-(hydroxymethyl)pyrrolidin-1-yl)-2-(3-fluoropyridin-2-yl)-1-methyl-1H-benzo[d]imidazol-5-yl)-2-(2-fluoro-6-methoxyphenyl)pyrimidine-4-carboxamide]
Cn1c(-c2ncccc2F)nc2c(N3C[C@H](N)C[C@H]3CO)c(NC(=O)c3ccnc(-c4c(F)cccc4F)n3)ccc21 [Example 2, N-(4-((2S,4R)-4-Amino-2-(hydroxymethyl)pyrrolidin-1-yl)-2-(3-fluoropyridin-2-yl)-1-methyl-1H-benzo[d]imidazol-5-yl)-2-(2,6-difluorophenyl)pyrimidine-4-carboxamide]
COc1cccnc1-c1nc2c(N3C[C@H](N)C[C@H]3CO)c(NC(=O)c3ccnc(-c4c(F)cccc4F)n3)ccc2n1C [Example 3, N-(4-((2S,4R)-4-Amino-2-(hydroxymethyl)pyrrolidin-1-yl)-2-(3-methoxypyridin-2-yl)-1-methyl-1H-benzo[d]imidazol-5-yl)-2-(2,6-difluorophenyl)pyrimidine-4-carboxamide]
Cn1c(-c2ccccc2C#N)nc2c(N3C[C@H](N)C[C@H]3CO)c(NC(=O)c3ccnc(-c4c(F)cccc4F)n3)ccc21 [Example 4, N-(4-((2S,4R)-4-Amino-2-(hydroxymethyl)pyrrolidin-1-yl)-2-(2-cyanophenyl)-1-methyl-1H-benzo[d]imidazol-5-yl)-2-(2,6-difluorophenyl)pyrimidine-4-carboxamide]
N#Cc1ccccc1-c1nc2c(N3C[C@H](N)C[C@H]3CO)c(NC(=O)c3ccnc(-c4c(F)cccc4F)n3)ccc2n1C1CC1 [Example 5, N-(4-((2S,4R)-4-amino-2-(hydroxymethyl)pyrrolidin-1-yl)-2-(2-cyanophenyl)-1-cyclopropyl-1H-benzo[d]imidazol-5-yl)-2-(2,6-difluorophenyl)pyrimidine-4-carboxamide]
CN(c1c(NC(=O)c2ccnc(-c3c(F)cccc3F)n2)ccc2c1nc(-c1c(F)cncc1F)n2C)[C@@H]1CCCNC1 [Example 6, (R)-2-(2,6-Difluorophenyl)-N-(2-(3,5-difluoropyridin-4-yl)-1-methyl-4-(methyl(piperidin-3-yl)amino)-1H-benzo[d]imidazol-5-yl)pyrimidine-4-carboxamide]
Cn1c(-c2ccncc2F)nc2c(N3C[C@H](N)C[C@H]3CO)c(NC(=O)c3ccnc(-c4c(F)cccc4F)n3)ccc21 [Example 7, N-(4-((2S,4R)-4-Amino-2-(hydroxymethyl)pyrrolidin-1-yl)-2-(3-fluoropyridin-4-yl)-1-methyl-1H-benzo[d]imidazol-5-yl)-2-(2,6-difluorophenyl)pyrimidine-4-carboxamide]
COc1cccc(F)c1-c1nccc(C(=O)Nc2ccc3c(nc(-c4ccncc4F)n3C)c2N2CCOC[C@@H]2CN)n1 [Example 8, (S)—N-(4-(3-(Aminomethyl)morpholino)-2-(3-fluoropyridin-4-yl)-1-methyl-1H-benzo[d]imidazol-5-yl)-2-(2-fluoro-6-methoxyphenyl)pyrimidine-4-carboxamide]
Cn1c(-c2ccncc2F)nc2c(N3CCNC[C@@H]3CO)c(NC(=O)c3ccnc(-c4c(F)cccc4F)n3)ccc21 [Example 9, (R)-2-(2,6-Difluorophenyl)-N-(2-(3-fluoropyridin-4-yl)-4-(2-(hydroxymethyl)piperazin-1-yl)-1-methyl-1H-benzo[d]imidazol-5-yl)pyrimidine-4-carboxamide]
COc1cccc(F)c1-c1nccc(C(=O)Nc2ccc3c(nc(-c4ccncc4F)n3C)c2N2C[C@@H]3C[C@H]2CN3)n1 [Example 10, N-(4-((1S,4S)-2,5-Diazabicyclo[2.2.1]heptan-2-yl)-2-(3-fluoropyridin-4-yl)-1-methyl-1H-benzo[d]imidazol-5-yl)-2-(2-fluoro-6-methoxyphenyl)pyrimidine-4-carboxamide]
COc1cccc(F)c1-c1nccc(C(=O)Nc2ccc3c(nc(-c4ccncc4F)n3C)c2N2C[C@@H]3C[C@H]2CO3)n1 [Example 11, N-(4-((1S,4S)-2-Oxa-5-azabicyclo[2.2.1]heptan-5-yl)-2-(3-fluoropyridin-4-yl)-1-methyl-1H-benzo[d]imidazol-5-yl)-2-(2-fluoro-6-methoxyphenyl)pyrimidine-4-carboxamide]
COc1cccc(F)c1-c1nccc(C(=O)Nc2ccc3c(nc(C)n3C)c2N2CCC[C@H]2CN)n1 [Example 12, (S)—N-(4-(2-(Aminomethyl)pyrrolidin-1-yl)-1,2-dimethyl-1H-benzo[d]imidazol-5-yl)-2-(2-fluoro-6-methoxyphenyl)pyrimidine-4-carboxamide]
COc1cccc(F)c1-c1nccc(C(=O)Nc2ccc3c(nc(C)n3C)c2N2CCC[C@@H]2CN)n1 [Example 13, (R)—N-(4-(2-(Aminomethyl)pyrrolidin-1-yl)-1,2-dimethyl-1H-benzo[d]imidazol-5-yl)-2-(2-fluoro-6-methoxyphenyl)pyrimidine-4-carboxamide]
COc1cccc(F)c1-c1nccc(C(=O)Nc2ccc3c(nc(C)n3C)c2N2CCC[C@@H]2CO)n1 [Example 14, (R)-2-(2-Fluoro-6-methoxyphenyl)-N-(4-(2-(hydroxymethyl)pyrrolidin-1-yl)-1,2-dimethyl-1H-benzo[d]imidazol-5-yl)pyrimidine-4-carboxamide]
COc1cccc(F)c1-c1nccc(C(=O)Nc2ccc3c(nc(C)n3C)c2N2C[C@H](N)C[C@H]2CO)n1 [Example 15, N-(4-((2S,4R)-4-Amino-2-(hydroxymethyl)pyrrolidin-1-yl)-1,2-dimethyl-1H-benzo[d]imidazol-5-yl)-2-(2-fluoro-6-methoxyphenyl)pyrimidine-4-carboxamide]
COc1cccc(F)c1-c1nccc(C(=O)Nc2ccc3c(nc(C)n3C)c2N2C[C@H]3C[C@@H]2CN3)n1 [Example 16, N-(4-((1R,4R)-2,5-Diazabicyclo[2.2.1]heptan-2-yl)-1,2-dimethyl-1H-benzo[d]imidazol-5-yl)-2-(2-fluoro-6-methoxyphenyl)pyrimidine-4-carboxamide]
COc1cccc(F)c1-c1nccc(C(=O)Nc2ccc3c(nc(C(C)C)n3C)c2N2C[C@@H]3C[C@H]2CN3)n1 [Example 17, N-(4-((1S,4S)-2,5-Diazabicyclo[2.2.1]heptan-2-yl)-2-isopropyl-1-methyl-1H-benzo[d]imidazol-5-yl)-2-(2-fluoro-6-methoxyphenyl)pyrimidine-4-carboxamide]
COc1cccc(F)c1-c1nccc(C(=O)Nc2ccc3c(nc(-c4ccncc4F)n3C)c2N2CCC[C@H]2CN)n1 [Example 18, (S)—N-(4-(2-(Aminomethyl)pyrrolidin-1-yl)-2-(3-fluoropyridin-4-yl)-1-methyl-1H-benzo[d]imidazol-5-yl)-2-(2-fluoro-6-methoxyphenyl)pyrimidine-4-carboxamide]
COc1cccc(F)c1-c1nccc(C(=O)Nc2ccc3c(nc(-c4ccnn4C)n3C)c2N2CCC[C@H]2CN)n1 [Example 19, (S)—N-(4-(2-(Aminomethyl)pyrrolidin-1-yl)-1-methyl-2-(1-methyl-1H-pyrazol-5-yl)-1H-benzo[d]imidazol-5-yl)-2-(2-fluoro-6-methoxyphenyl)pyrimidine-4-carboxamide]
COc1cccc(F)c1-c1nccc(C(=O)Nc2ccc3c(nc(C4CCOCC4)n3C)c2N2CCC[C@H]2CN)n1 [Example 20, (S)—N-(4-(2-(Aminomethyl)pyrrolidin-1-yl)-1-methyl-2-(tetrahydro-2H-pyran-4-yl)-1H-benzo[d]imidazol-5-yl)-2-(2-fluoro-6-methoxyphenyl)pyrimidine-4-carboxamide]
COCCn1c(C)nc2c(N3CCC[C@H]3CN)c(NC(=O)c3ccnc(-c4c(F)cccc4OC)n3)ccc21 [Example 21, (S)—N-(4-(2-(Aminomethyl)pyrrolidin-1-yl)-1-(2-methoxyethyl)-2-methyl-1H-benzo[d]imidazol-5-yl)-2-(2-fluoro-6-methoxyphenyl)pyrimidine-4-carboxamide]
COC[C@@H](C)n1c(C)nc2c(N3CCC[C@H]3CN)c(NC(=O)c3ccnc(-c4c(F)cccc4OC)n3)ccc21 [Example 22, N-(4-((S)-2-(Aminomethyl)pyrrolidin-1-yl)-1-((R)-1-methoxypropan-2-yl)-2-methyl-1H-benzo[d]imidazol-5-yl)-2-(2-fluoro-6-methoxyphenyl)pyrimidine-4-carboxamide]
COc1cccc(F)c1-c1nccc(C(=O)Nc2ccc3c(nc(C)n3CC(C)(C)OC)c2N2CCC[C@H]2CN)n1 [Example 23, (S)—N-(4-(2-(Aminomethyl)pyrrolidin-1-yl)-1-(2-methoxy-2-methylpropyl)-2-methyl-1H-benzo[d]imidazol-5-yl)-2-(2-fluoro-6-methoxyphenyl)pyrimidine-4-carboxamide]
COc1cccc(F)c1-c1nccc(C(=O)Nc2ccc3c(nc(C)n3[C@H]3CCOC3)c2N2CCC[C@H]2CN)n1 [Example 24, N-(4-((S)-2-(Aminomethyl)pyrrolidin-1-yl)-2-methyl-1-((S)-tetrahydrofuran-3-yl)-1H-benzo[d]imidazol-5-yl)-2-(2-fluoro-6-methoxyphenyl)pyrimidine-4-carboxamide]
COCc1nc2c(N3CCC[C@H]3CN)c(NC(=O)c3ccnc(-c4c(F)cccc4OC)n3)ccc2n1C [Example 25, (S)—N-(4-(2-(Aminomethyl)pyrrolidin-1-yl)-2-(methoxymethyl)-1-methyl-1H-benzo[d]imidazol-5-yl)-2-(2-fluoro-6-methoxyphenyl)pyrimidine-4-carboxamide]
